From publication PMC10952572, “Improved PIEZO1 agonism through 4‐benzoic acid modification of Yoda1” (British Journal of Pharmacology, 2023)

Experiments:
mouse portal vein = experiment: Wire myography, relaxation of phenylephrine pre-constricted vein; details: for Relaxation of portal vein: 0.1-10 μM, pre-constricted with 10 μM phenylephrine; for EC50: mouse portal vein pre-constricted with 10 μM phenylephrine, Hill fit
Description: Mice were anaesthetised with isoflurane (5% induction and 1.5% maintenance) in 95% O2 according to Schedule 1 procedure approved by the UK Home Office. The portal vein was quickly dissected and placed in Krebs solution. The Krebs PV solution consisted of 118 mM NaCl, 4.7 mM KCl, 2.5 mM CaCl2, 1.2 mM KH2PO4, 1.2 mM MgSO4·7H2O, 25.2 mM NaHCO3 and 11.1 mM glucose. By means of a dissecting microscope, adhering perivascular tissue was carefully removed and the vein was cut into 1 mm segments.
Vein segments were mounted onto two thin stainless steel wires in an isometric myograph (Multi Wire Myograph System 620M from Danish Myograph Technology [DMT]), for which the force transducer was calibrated once per month according to the manufacturer's instructions. The recording chamber was filled with gassed Krebs solution (95% O2/5% CO2, pH 7.4). The segments were then stretched to a normalised internal diameter according to the manufacturer's instructions. The mounted rings were kept in a 5 ml chamber containing Krebs solution at 37°C and continuously bubbled with a gas mixture of 95% O2 and 5% CO2 (pH 7.4). After an equilibration period of 60 min, the contractile function of the vessel was tested by replacing the Krebs solution by 60 mM K^+ solution. Following washout, the vein was contracted once with 10 μM phenylephrine and then Yoda1, KC159 or KC289 was applied with the concentrations of 0.1 to 10 μM. The NOS inhibitor, L‐NAME, (100 μM), was pre‐incubated for 20 min before the PIEZO1 modulator.
Because the anticipated effect of test compounds was to cause vessel relaxation, phenylephrine was applied to induce tension and the maximum value of this tension was defined as 0% relaxation (no relaxation). The value of tension immediately prior to application of phenylephrine was defined as 100% relaxation. Data are normalised to these values because, otherwise, the intrinsic variability in the absolute amount of tension induced by phenylephrine obscured exploration of the relaxant effect of compounds.
OriginPro 2020 was used for the analysis of myography data. Myography traces show readings taken every 0.5 or 1 s and were smoothed with the Savitzky–Golay filter set to 70 points. To compare the agonistic activity of Yoda1 analogues, basal vessel tension prior to compound injection was subtracted. Maximal tension in the presence of PE alone was used to define 0% relaxation. The tension value prior to PE application was defined as 100% relaxation. Following the addition of test compounds, tension readings were taken at the last time point of the treatments and expressed as percentage relaxation.

HeLa cells = experiment: Intracellular Ca2+ measurement in HeLa cells with siRNA knockdown of PIEZO1/PIEZO2; assay type: cell-based, human; details: 10 μM; for Ca2+ response after PIEZO1 depletion / Ca2+ response after PIEZO2 depletion: HeLa cells; for Ca2+ response after PIEZO1 depletion: siPIEZO1; for Ca2+ response after PIEZO2 depletion: siPIEZO2
Description: Hela (ATCC Cat #CRM‐CCL‐2, RRID:CVCL_0030) and HEK 293 (ATCC Cat #CRL‐1573, RRID:CVCL_0045) cells were purchased from ATCC and maintained in DMEM supplemented with 10% heat‐inactivated fetal calf serum, 100 U·ml^−1 penicillin and 100 μg·ml^−1 streptomycin (Sigma‐Aldrich).
Cells were transfected using Opti‐MEM™ I Reduced Serum Medium (Thermo Fisher Scientific) and Lipofectamine 2000 (Thermo Fisher Scientific). For transfection of cells in six‐well plates, […] short‐interfering RNA (siRNA) (control siRNA [siCtrl]: Dharmacon ON‐TARGETplus Non‐targeting Control Pool, D‐001810‐10‐05; siRNA targeted to PIEZO2 expression [siPIEZO2]: Dharmacon ON‐TARGETplus SmartPool PIEZO2, L‐013925‐02‐0005; and PIEZO1: Sigma‐Aldrich, GCAAGUUCGUGCGCGGAUU[DT][DT]) and 3 μl of Lipofectamine 2000 complexed in 200 μl of Opti‐MEM were added to 0.8 ml cell culture medium per well. The culture medium was changed 4 h post transfection, and cells were used for experiments 48 h later.
HEK 293‐TREx cells and their stably transfected derivatives or transiently transfected HEK 293 or HeLa cells were seeded at a density of 7.5 × 10^4 cells per well into poly‐D‐lysine‐coated 96‐well plates. The plates were either commercially pre‐coated with poly‐D‐lysine (Greiner Bio‐One #655946) or (Greiner Bio‐One #655090) were coated in‐house with 35 μl of a 10 μg·ml^−1 poly‐D‐lysine (Bio‐Techne, Cultrex # 3439‐100‐01) in sterile deionised water per well for at least 24 h and rinsed three times with 100 μl per well sterile D‐PBS before addition of cells. HUVECs were seeded into tissue culture‐treated 96‐well plates (Greiner Bio‐One #655090) at a density of either 2.5 × 10^4 cells 24 h before experimentation or 1.25 × 10^4 cells 48 h before experimentation. Cells were incubated with 2 μM Fura‐2‐AM (Molecular Probes™) in the presence of 0.01% (wt./vol.) pluronic F127 (Sigma‐Aldrich #P2443) in standard bath solution (SBS) for 1 h at 37°C. Cells were washed with SBS for 30 min at room temperature. Alternatively, if inhibitors were being tested, these were added at this time, immediately following a wash in SBS. (−)‐Englerin A (Akbulut et al., [2015]) was used in SBS containing 0.01% pluronic acid as a dispersing agent to minimise aggregation of compound. Unless otherwise stated, the final concentration of DMSO was 0.2% (vol./vol). Working 2000× stock solutions of test compounds were freshly made in DMSO and diluted 1000‐fold in SBS during the 30 min SBS wash/inhibitor pre‐incubation period to obtain 2× solutions for injection. When testing the highest concentration of Yoda1, KC159 and KC289 (30 μM), the final DMSO concentration was 0.6% (vol./vol.). Measurements were made at room temperature on a 96‐well fluorescence plate reader (FlexStation 3, Molecular Devices, Sunnyvale, CA, USA) controlled by SoftMax Pro software v7.0.3. Recipient wells containing 80 μl SBS/0.2% (vol./vol.) DMSO vehicle or inhibitor compound received 80 μl 2× compound at an injection rate of 1 μl·s^−1, and the pipette introduced liquids from a height setting of 70 μl. No trituration was performed. For recordings using Fura‐2, the change in intracellular Ca was indicated as the ratio of Fura‐2 emission (510 nm) intensities at 340 and 380 nm excitation. Photomultipliers were set to medium sensitivity. SBS contained 130 mM NaCl, 5 mM KCl, 8 mM D‐glucose, 10 mM HEPES, 1.2 mM MgCl2 and 1.5 mM CaCl2, and the pH was adjusted to 7.4 with NaOH. The solution was filtered through a 0.2 μm bottle‐top filter prior to use and handled aseptically thereafter.

| Compound | Relaxation of portal vein (mouse portal vein) | EC50 (mouse portal vein) | Ca2+ elevations in HeLa cells (HeLa cells) | Ca2+ response after PIEZO1 depletion (HeLa cells) | Ca2+ response after PIEZO2 depletion (HeLa cells) | EC50 (mouse portal vein; Mus musculus) | Relaxation in portal vein from PIEZO1ΔEC mice (mouse portal vein; endothelial PIEZO1 deletion versus control mice) | Relaxant effect after L-NAME (mouse portal vein; pre-incubation with 100 μM L-NAME) |
| --- | --- | --- | --- | --- | --- | --- | --- | --- |
| O=C(O)c1ccc(-c2nnc(SCc3c(Cl)cccc3Cl)s2)cc1 [KC159] | concentration‐dependent relaxation | 1140 nM | evoked Ca^2+ elevations | partly suppressed | partly suppressed |  |  |  |
| Clc1cccc(Cl)c1CSc1nnc(-c2cnccn2)s1 [Yoda1, 2‐[5‐[[(2,6‐dichlorophenyl)methyl]thio]‐1,3,4‐thiadiazol‐2‐yl]pyrazine] | concentration‐dependent relaxation |  | evoked Ca^2+ elevations | partly suppressed | partly suppressed |  |  |  |
| O=C([O-])c1ccc(-c2nnc(SCc3c(Cl)cccc3Cl)s2)cc1.[K+] [KC289] | concentration‐dependent relaxation |  | evoked Ca^2+ elevations | partly suppressed | partly suppressed | 1200 nM | inhibited by endothelial PIEZO1 deletion | abolishes the relaxant effect |
